According to patent EP0089154A2, “Ethanolamine derivatives, their preparation and use in pharmaceutical compositions” (BEECHAM GROUP PLC, priority 1982, dated 1983):
Counter-ions that a name gives are not always drawn. Like-named read-outs stand apart in the source and are kept apart here.

Key:
Female CFLP mice = test: Anti-hyperglycaemic activity: subcutaneous glucose load in fasted mice; assay type: in vivo; conditions: Mus musculus, po, read-out: % REDUCTION IN AREA UNDER BLOOD GLUCOSE CURVE; for inhibition in vivo at 12.5 µmol/kg: dose 12.5 μmol/kg orally
Method: Female CFLP mice, weighing approximately 25 g, were fasted for 24 hours prior to the study. The compounds under study were administered orally as an aqueous solution to each of 6 mice. 30 Minutes later a blood sample (10 pl) was obtained from the tail for the analysis of blood glucose. Immediately after taking this blood sample, glucose (1 g/kg body weight) was administered subcutaneously to each mouse. 6 Mice were given water as a control. Blood samples were then obtained from each mouse at 30 minute intervals for 120 minutes.
Compounds that produced a significant (P 0.05) reduction of blood glucose, compared with control mice given water, at any time interval, were considered active. The area under the blood glucose curve over the 2 hour period after the administration of the glucose was calculated for each compound and compared with the value for control animals.

Rat hearts = test: Cardiac activity: Langendorff perfused rat heart
Method: Rat hearts were perfused by the Langendorff procedure. Hearts were dissected free within 30 seconds of death and reverse perfused via the aorta and coronary vessels with Krebs-Ringer bicarbonate solution (pH 7.4, 37°C) gassed with 95% oxygen:5% carbon dioxide at a flow rate between 8-12 cm^3/minute. Responses were observed after injection of drug dissolved in isotonic saline into the perfusion media.
Results are expressed as a percentage of the maximum response due to salbutamol.

rat ear = test: Anti-inflammatory activity: croton oil induced rat ear inflammation; assay type: in vivo; conditions: 1.00 mg/rat ear, topical in 1% croton oil in tetrahydrofuran, ear weight after 6 hours
Method: The method used is based on that described by G.Tonelli et al (Endocrinology, 77, 625-634, 1965). An inflammation is induced in the rat ear by the application of 50 pl of a 1% solution of croton oil in tetrahydrofuran, test compounds being dissolved in the irritant vehicle. After 6 hours the inflammation is assessed by killing the animals and weighing the ears. Topical anti-inflammatory activity of a compound is generally considered to be shown when a significant (5% level) reduction in ear weight is seen compared to non- drug treated control.

[1] = mice fasted 24 hours, glucose 1 g/kg subcutaneously, 2 hour period, compared with control given water
[2] = 30 µg added to perfusate, perfused rat heart, read-out: HEART RATE
[3] = 30 µg added to perfusate, perfused rat heart, read-out: HEART TENSION
[4] = dose 2.5 μmol/kg orally, mice fasted 24 hours, glucose 1 g/kg subcutaneously, 2 hour period, compared with control given water
[5] = dose 1.0 μmol/kg orally, mice fasted 24 hours, glucose 1 g/kg subcutaneously, 2 hour period, compared with control given water

`CC(Cc1ccc(SCc2ccccc2)cc1)NCC(O)c1cccc(Cl)c1` (centres unmarked) [Example 4, N-[2-(4-Benzylthiophenyl)-1-methylethyl]-2-hydroxy-2-(3-chlorophenyl)ethanamine] was tested, and the inhibition in vivo at 12.5 µmol/kg (Female CFLP mice; [1]) was 17%.

Work on `CSc1ccc(C[C@@H](C)NC[C@H](O)c2cccc(Cl)c2)cc1` [Example 19, (RR, SS)-N-[2-(4-Methylthiophenyl)-1-methylethyl]-2-luydroxy-1-(3-chlorophenyl) ethanamine hydrochloride] yielded an inhibition in vivo at 2.5 µmol/kg (Female CFLP mice; 2 h) of 26%.

In the case of `CC(Cc1ccc(S(=O)(=O)C(C)C)cc1)NCC(O)c1cccc(C(F)(F)F)c1` (centres unmarked) [Example 8, N-[2-(4-Isopropylsulphonylphenyl)-1-methylethyl]-2-hydroxy-2-(3-trifluoromethylphenyl)ethanamine], the Emax at 30 µg (Rat hearts; [2]) is reported as 29% and the Emax at 30 µg (Rat hearts; [3]) is reported as 30%.

For `COC(=O)CCSc1ccc(CC(C)NCC(O)c2cccc(C(F)(F)F)c2)cc1` (centres unmarked) [Example 1, N-[2-(4-(2-Carbomethoxyethylthio)phenyl)-1-methylethyl] 2-hydroxy-2-(3-trifluoromethylphenyl)ethanamine], the inhibition (rat ear) was 89%, the Activity (rat ear; active = significant (5% level) reduction in ear weight) was “Active” and the Emax at 30 µg (Rat hearts; [2]) was 0%. For the same compound, the Emax at 30 µg (Rat hearts; [3]) was 4% and the inhibition in vivo at 12.5 µmol/kg (Female CFLP mice; [1]) was 35%.

Compound `CC(Cc1ccc(S(=O)(=O)C(C)(C)C)cc1)NCC(O)c1cccc(Cl)c1` (centres unmarked) [Example 15, N-(2-(4-t-Butylsulphonylphenyl)-1-methylethyl]-2-hydroxy-2-(3-chlorophenyl)ethanamine hydrobromide] has an inhibition in vivo at 100 µmol/kg (Female CFLP mice; 2 h) of 48%.

Compound `CC(Cc1ccc(SCCSc2ccccc2)cc1)NCC(O)c1cccc(Cl)c1` (centres unmarked) [Example 24, N-[2-(4-(2-Phenylthioethylthio)phenyl)-1-methylethyl]-2-hydroxy-2-(3-chlorophenyl)ethanamine] has an inhibition in vivo at 2.5 µmol/kg (Female CFLP mice; [4]) of 12%.

Work on `CC(Cc1ccc(SCCOc2ccccc2)cc1)NCC(O)c1cccc(Cl)c1` (centres unmarked) [Example 22, N-[2-(4-(2-Phenoxyethylthio)phenyl)-1-methyletlzyl]-2-hydroxy-2-(3-chlorophenyl) ethanamine] yielded an inhibition in vivo at 2.5 µmol/kg (Female CFLP mice; [4]) of 23%.

For `CC(Cc1ccc(SC(C)C)cc1)NCC(O)c1cccc(Cl)c1` (centres unmarked) [Example 3, N-[2-(4-Isopropylthiophenyl)-1-methylethyl]-2-hydroxy-2-(3-chlorophenyl)ethanamine hydrochloride], the inhibition in vivo at 0.5 µmol/kg (Female CFLP mice; 2 h) was 28%.

`CC(Cc1ccc([S+](C)[O-])cc1)NCC(O)c1cccc(Cl)c1` (centres unmarked) [Example 20, N-[2-(4-Methylsulphinylphenyl)-1-methylethyl]-2-hydroxy-2-(3-chlorophenyl) ethanamine] showed an inhibition in vivo at 12.5 µmol/kg (Female CFLP mice; [1]) of 59%.

`CC(Cc1ccc(CS(=O)(=O)C(C)C)cc1)NCC(O)c1cccc(C(F)(F)F)c1` (centres unmarked) [Example 12, N-[2-(4-Isopropylsulphonylmethylphenyl)-1-methylethyl] -2-hydroxy-2-(3-trifluoromethylphenyl)ethanamine] gave an Emax at 30 µg (Rat hearts; [2]) of 13% and an Emax at 30 µg (Rat hearts; [3]) of 40%.

Work on `CC(Cc1ccc(CS(C)(=O)=O)cc1)NCC(O)c1cccc(C(F)(F)F)c1` (stereo not drawn) [Example 11, N-[2-(4-Methylsulphonylmethylphenyl)-l-methylethyl] -2-hydroxy-2-(3-trifluoromethylphenyl)ethanamine] yielded an Emax at 30 µg (Rat hearts; [2]) of 67% and an Emax at 30 µg (Rat hearts; [3]) of 18%.

`CC(Cc1ccc(SC(C)C)cc1)NCC(O)c1ccccc1` (centres unmarked) [Example 17, N-[2-(4-Isopropylthiophenyl)-1-methylethyl]-2-hydroxy-2-phenylethanamine] showed an inhibition in vivo at 2.5 µmol/kg (Female CFLP mice; 2 h) of 30%.

Work on `COC(=O)CCS(=O)(=O)c1ccc(CC(C)NCC(O)c2cccc(Cl)c2)cc1` (centres unmarked) [Example 10, N-[2-(4-{2-Carbomethoxyethylsulphonyl}phenyl)-1-methylethyl] -2-hydroxy-2-(3-chlorophenyl)ethanamine] yielded an Emax at 30 µg (Rat hearts; [2]) of 31%, an Emax at 30 µg (Rat hearts; [3]) of 91% and an inhibition in vivo at 1 µmol/kg (Female CFLP mice; [5]) of 10%.

Compound `CC(Cc1ccc(S(C)(=O)=O)cc1)NCC(O)c1cccc(C(F)(F)F)c1` (centres unmarked) [Example 7, N-[2-(4-Methylsulphonylphenyl)-1-methylethyl]-2-hydroxy-2-(3-trifluoromethylphenyl)ethanamine] has an Emax at 30 µg (Rat hearts; [2]) of 25%, an Emax at 30 µg (Rat hearts; [3]) of 0% and an inhibition in vivo at 12.5 µmol/kg (Female CFLP mice; [1]) of 48%.

Compound `COCCSc1ccc(CC(C)NCC(O)c2cccc(Cl)c2)cc1` (centres unmarked) [Example 21, N-[2-(4-(2-Methoxyethylthio)phenyl)-1-methylethyl]-2-hydroxy-2-(3-chlorophenyl)ethanamine hydrochloride] has an inhibition in vivo at 1 µmol/kg (Female CFLP mice; 2 h) of 31%.

Compound `CSc1ccc(C[C@H](C)NC[C@H](O)c2cccc(Cl)c2)cc1` [Example 18] has an inhibition in vivo at 5 µmol/kg (Female CFLP mice; 2 h) of 16%.

`CNCCSc1ccc(CC(C)NCC(O)c2cccc(Cl)c2)cc1` (centres unmarked) [Example 23, N-[2-(4-(2-Methylaminoethylthio)phenyl)-1-methlethyl]-2-hydrox-2-(3-chlorophenyl)ethanamine dihydrochloride] gave an inhibition in vivo at 1 µmol/kg (Female CFLP mice; [5]) of 16%.

`CC(Cc1ccc(S(=O)(=O)CCCO)cc1)NCC(O)c1cccc(C(F)(F)F)c1` (centres unmarked) [Example 9, N-[2-(4-{3-Hyaroxypropylsulphonyl}phenyl)-1-methylethyl] -2-hydroxy-2-(3-trifluoromethylphenyl)-ethanamine] gave an inhibition in vivo at 12.5 µmol/kg (Female CFLP mice; [1]) of 52%.

In the case of `CSc1ccc(CC(C)NCC(O)c2cccc(Cl)c2)cc1` (centres unmarked) [Example 2, N-[2-(4-Methylthiophenyl)-1-methylethyl]-2-hydroxy-2-(3-chlorophenyl)ethanamine], the Emax at 30 µg (Rat hearts; Rattus norvegicus, read-out: HEART RATE) is reported as 23%, the Emax at 30 µg (Rat hearts; Rattus norvegicus, read-out: HEART TENSION) is reported as 25% and the inhibition in vivo at 1 µmol/kg (Female CFLP mice; 2 h) is reported as 8%.
